The source of these data is patent EP4700041A1, “NOVEL PEPTIDE HAVING ACTIVITY OF RETARDING DEGRADATION OF HYALURONIC ACID AND USES THEREOF” (Caregen Co., Ltd., priority 2023, dated 2026).

Ends that are not written are not given here. A value given as a limit tells only on which side of the number the result lay.

Data set [1] is described as follows: Delay of hyaluronic acid degradation by reactive oxygen species in hyaluronic acid solution (viscosity, rheometer). Conditions: 1.5 wt% hyaluronic acid solution in PBS; peptide 100 ppm, 1000 ppm, 5000 ppm; 500 mM H2O2; 60 and 180 minutes; FIG. 5. As to the method:
Hyaluronic acid was dissolved in PBS to a concentration of 1.5 wt% and hydrated, and 10 g of this solution was dispensed into each conical tube. Peptide solutions were added to the dispensed hyaluronic acid solutions so that the final peptide concentrations were 0 ppm (no addition), 100 ppm, 1000 ppm, and 5000 ppm, respectively. 2 mL of 500 mM hydrogen peroxide (H2O2) was added to each. Viscosity was measured using a rheometer (single shear stress) by sampling at 0, 30, 60, and 180 minutes to compare the viscosity values according to the peptide concentration. As above, 1.5 wt% hyaluronic acid solutions containing peptides at each concentration were treated with hydrogen peroxide to maintain the degradation reaction by reactive oxygen species for 60 and 180 minutes, thereby degrading hyaluronic acid. After the degradation reaction, the viscosity of each hyaluronic acid solution was measured to confirm the degradation delaying efficacy.

Data set [2] in a line: Thermal stability of the peptide (HPLC area). It counts as physicochemical. Particulars: 1000 ppm solution, 50°C vs 25°C, 72 hours, FIG. 7a. As to the method:
The evaluation of thermal stability was performed as follows. A diluted solution of the peptide of Preparation Example 1 at a concentration of 1000 ppm was prepared, dispensed into 50 mL conical tubes, and placed in an incubator at 25°C and 50°C. After 72 hours, 1 mL of each sample was filtered through a 0.22 µm filter. The area values were compared at 25°C based on pH 7 measured by HPLC.

Data set [3] can be described thus: Delay of hyaluronic acid degradation by reactive oxygen species in BDDE-cross-linked filler (Congo Red diffusion, absorbance 500 nm). Particulars: 37°C, FIG. 6. Here is the method: A 1,4-Butanediol diglycidyl ether (BDDE)-cross-linked hyaluronic acid filler with or without the peptide of Preparation Example 1 was prepared, and Congo Red and hyaluronidase (HAdase) as absorbing dyes were prepared. 20 µL of 1 mM Congo Red was added to each 1.5 mL eppendorf tube, and 100 µL each of the peptide-free filler (control filler) and the peptide-containing filler were added on the absorbing dye. Each was treated with 350 µL of 500 mM hydrogen peroxide (H2O2). Each tube was placed in an incubator at 37°C, and 100 µL of the sample supernatant was collected at time points of 1 hour, 3 hours, 6 hours, 24 hours, 48 hours, and 72 hours and transferred to 96-wells. The absorbance was measured at 500 nm using a microplate reader (SpectraMax iD3, Molecular devices, USA). As above, BDDE-cross-linked hyaluronic acid filler samples with or without the peptide were prepared, and the degree of degradation of hyaluronic acid filler by reactive oxygen species was compared depending on the presence or absence of peptide. The degree of degradation of hyaluronic acid filler was measured by the change in absorbance due to the diffusion of dye. That is, the principle that the flowability of the sample increases when hyaluronic acid is degraded by reactive oxygen species and thus the diffusion of the dye increases was utilized.

Data set [4] can be described thus: pH stability of the peptide (HPLC area). It counts as physicochemical. Particulars: 1000 ppm solution, pH 4 to pH 10, HPLC area compared with pH 7; FIG. 7b. As to the method:
The evaluation of pH stability was performed as follows. A diluted solution of the peptide of Preparation Example 1 at a concentration of 1000 ppm was prepared, and the initial pH value of the solution was measured (pH = 3.21). 0.5 M NaOH was added so as to titrate the pH of the solution to pH 4, pH 7, and pH 10, respectively. Each sample was filtered through a 0.22 µm filter. The area values were compared based on pH 7 measured by HPLC.

Take “KIWNLEPSRNGT [SEQ ID NO: 1, KIWNLEPSRNGT]”: the “degradation of hyaluronic acid by reactive oxygen species (viscosity)” value in data set [1] is “degradation of hyaluronic acid was delayed as the concentration of peptide increased”. Further, the thermal stability result in data set [2] is “stable”. In data set [3] (BDDE-cross-linked hyaluronic acid filler with peptide vs peptide-free control filler, 24 hours after treatment with 500 mM hydrogen peroxide), this sequence returned a degradation delay improved of at least 50%. For the same sequence, the “effect of delaying degradation” value in data set [3] (BDDE-cross-linked hyaluronic acid filler with peptide, treated for 48 hours with 500 mM hydrogen peroxide) turned out to be 85%. Moreover, the pH stability entry in data set [4] was “stable”.
